Assay [1] has as its system human cervical tumor cell line HeLa (ATCC CCL-2). The experiment in a line: SAC-Formation - Paclitaxel-Induced Assay. The assay is classed as cell-based. Conditions: Homo sapiens, HeLa, 24 h, HeLa cells, paclitaxel 0.05 μM, test range 0.005 μM-20 μM, read-out: IC50 [mol/l] SAC-Formation - Paclitaxel-Induced Assay. The gist of the method: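 HeLa cells incubated overnight at 37° C, then given paclitaxel (0.05 μM final) plus test compound (0.005–20 μM, 0.5% DMSO) together for 24 h at 37° C. Fixed cells stained for phospho-histone H3 Ser10 (mitotic cells) and Hoechst 33342 (cell count); imaging-derived mitotic index fitted by four-parameter Hill equation.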

Another assay relates to HeLa. The experiment in a line: Proliferation assay (crystal violet), HeLa. Type of assay: cell-based. The conditions noted are these: Homo sapiens, HeLa, 96 h, HeLa cells; 4 days incubation; crystal violet staining; read-out: IC50 inhibition of proliferation, HeLa. The gist of the method:
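Cells plated at 1000-5000/well with 10% FCS, treated after 24 h with compound at 0.001-10 μM (0.5% DMSO) for 4 days. Glutaraldehyde-fixed, crystal violet-stained, A595 normalised to zero-point plate (0%) and untreated cells (100%); IC50 by 4-parameter fit.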

`Cc1nsc(Nc2cncc(C(F)(F)F)n2)c1C(=O)Nc1ccc(F)c(OC2CCN(CC(F)F)CC2)c1` [Example 268, N-(3-{[1-(2,2-difluoroethyl)piperidin-4-yl]oxy}-4-fluorophenyl)-3-methyl-5-{[6-(trifluoromethyl)pyrazin-2-yl]amino}-1,2-thiazole-4-carboxamide]: the values for the IC50 (in assay [1]; with HeLa) were 0.11 µM and 0.31 µM, respectively.
Taken in the same sequence, the figures for `Cc1nsc(Nc2cncc(C(F)(F)F)n2)c1C(=O)Nc1ccc(F)c(OC2CCN(CCF)CC2)c1` [Example 269, N-(4-fluoro-3-{[1-(2-fluoroethyl)piperidin-4-yl]oxy}phenyl)-3-methyl-5-{[6-(trifluoromethyl)pyrazin-2-yl]amino}-1,2-thiazole-4-carboxamide] were 0.21 µM and 0.84 µM.
Taken in the same sequence, the figures for `Cc1nsc(Nc2cnc(C(F)(F)F)cn2)c1C(=O)Nc1ccc(C(=O)NC2CN(CC(F)(F)F)C2)cc1` [Example 270, 3-methyl-N-(4-{[1-(2,2,2-trifluoroethyl)azetidin-3-yl]carbamoyl}phenyl)-5-{[5-(trifluoromethyl)pyrazin-2-yl]amino}-1,2-thiazole-4-carboxamide] were 10 µM and above 10 µM.
Taken in the same sequence, the figures for `Cc1nsc(Nc2cnc(C(F)(F)F)cn2)c1C(=O)Nc1ccc(C(=O)NC2CN(CC(F)F)C2)cc1` [Example 271, N-(4-{[1-(2,2-difluoroethyl)azetidin-3-yl]carbamoyl}phenyl)-3-methyl-5-{[5-(trifluoromethyl)pyrazin-2-yl]amino}-1,2-thiazole-4-carboxamide] were 2.1 µM and 9.4 µM.
With `Cc1nsc(Nc2cncc(C(F)(F)F)n2)c1C(=O)Nc1ccc(C(=O)N2CCN(CC(F)(F)F)CC2)cc1` [Example 272, 3-methyl-N-(4-{[4-(2,2,2-trifluoroethyl)piperazin-1-yl]carbonyl}phenyl)-5-{[6-(trifluoromethyl)pyrazin-2-yl]amino}-1,2-thiazole-4-carboxamide], the figures for the IC50 (in assay [1]; in the assay with HeLa) were 2.4 µM and 5.8 µM, respectively.
For `Cc1nsc(Nc2cncc(C(F)(F)F)n2)c1C(=O)Nc1ccc(C(=O)N2CCN(CC(F)F)CC2)cc1` [Example 273, N-(4-{[4-(2,2-difluoroethyl)piperazin-1-yl]carbonyl}phenyl)-3-methyl-5-{[6-(trifluoromethyl)pyrazin-2-yl]amino}-1,2-thiazole-4-carboxamide], in that order: 4.8 µM and 7.6 µM.
Taken in the same sequence, the figures for `Cc1nsc(Nc2cncc(C(F)(F)F)n2)c1C(=O)Nc1ccc(C(=O)N2CCN(CCF)CC2)cc1` [Example 274, N-(4-{[4-(2-fluoroethyl)piperazin-1-yl]carbonyl}phenyl)-3-methyl-5-{[6-(trifluoromethyl)pyrazin-2-yl]amino}-1,2-thiazole-4-carboxamide] were 9 µM and above 10 µM.
As to `CCN1CCN(C(=O)c2ccc(NC(=O)c3c(C)nsc3Nc3cncc(C(F)(F)F)n3)cc2)CC1` [Example 275, N-{4-[(4-ethylpiperazin-1-yl)carbonyl]phenyl}-3-methyl-5-{[6-(trifluoromethyl)pyrazin-2-yl]amino}-1,2-thiazole-4-carboxamide], the IC50 was 4.4 µM in assay [1] and above 10 µM in the assay on HeLa.
Taken in the same sequence, the figures for `Cc1nsc(Nc2cncc(C(F)(F)F)n2)c1C(=O)Nc1ccc(OCCO)nc1` [Example 276, N-[6-(2-hydroxyethoxy)pyridin-3-yl]-3-methyl-5-{[6-(trifluoromethyl)pyrazin-2-yl]amino}-1,2-thiazole-4-carboxamide] were 1.9 µM and 4.9 µM.
Taken in the same sequence, the figures for `Cc1nsc(Nc2cnc(C(F)(F)F)cn2)c1C(=O)Nc1ccc(OCCO)nc1` [Example 277, N-[6-(2-hydroxyethoxy)pyridin-3-yl]-3-methyl-5-{[5-(trifluoromethyl)pyrazin-2-yl]amino}-1,2-thiazole-4-carboxamide] were 10 µM and 3.2 µM.
For `Cc1nsc(Nc2cncc(C(F)(F)F)n2)c1C(=O)Nc1ccc(OCCCO)nc1` [Example 278, N-[6-(3-hydroxypropoxy)pyridin-3-yl]-3-methyl-5-{[6-(trifluoromethyl)pyrazin-2-yl]amino}-1,2-thiazole-4-carboxamide], in that order: 1.4 µM and 2.6 µM.
For the compound `Cc1nsc(Nc2cnc(C(F)(F)F)cn2)c1C(=O)Nc1ccc(OCCCO)nc1` [Example 279, N-[6-(3-hydroxypropoxy)pyridin-3-yl]-3-methyl-5-{[5-(trifluoromethyl)pyrazin-2-yl]amino}-1,2-thiazole-4-carboxamide], the IC50 is 0.72 µM in assay [1] and 2.2 µM in the assay on HeLa.
For the compound `Cc1nsc(Nc2cncc(C(F)(F)F)n2)c1C(=O)Nc1ccc(C(=O)NC2CN(CC(F)(F)F)C2)cc1` [Example 280, 3-methyl-N-(4-{[1-(2,2,2-trifluoroethyl)azetidin-3-yl]carbamoyl}phenyl)-5-{[6-(trifluoromethyl)pyrazin-2-yl]amino}-1,2-thiazole-4-carboxamide], the values for the IC50 (in assay [1]; with HeLa) were 3.7 µM and above 10 µM, respectively.
`Cc1nsc(Nc2cnc3ccccc3n2)c1C(=O)Nc1cccc(NS(=O)(=O)C2CCN(CC(F)(F)F)CC2)c1` [Example 281, 3-methyl-5-(quinoxalin-2-ylamino)-N-[3-({[1-(2,2,2-trifluoroethyl)piperidin-4-yl]sulfonyl}amino)phenyl]-1,2-thiazole-4-carboxamide]: the IC50 in assay [1] stood at 3.9 µM; with HeLa it was 8 µM.
Take `Cc1nsc(Nc2cnc3ccccc3n2)c1C(=O)Nc1cccc(NS(=O)(=O)C2CCN(CC(F)F)CC2)c1` [Example 282, N-[3-({[1-(2,2-difluoroethyl)piperidin-4-yl]sulfonyl}amino)phenyl]-3-methyl-5-(quinoxalin-2-ylamino)-1,2-thiazole-4-carboxamide]: the results for the IC50 (in assay [1]; in the assay on HeLa) were 3.5 µM and 6.2 µM, respectively.
Taken in the same sequence, the figures for `Cc1nsc(Nc2cnc3ccccc3n2)c1C(=O)Nc1cccc(NS(=O)(=O)C2CCN(CCC(F)(F)F)CC2)c1` [Example 283, 3-methyl-5-(quinoxalin-2-ylamino)-N-[3-({[1-(3,3,3-trifluoropropyl)piperidin-4-yl]sulfonyl}amino)phenyl]-1,2-thiazole-4-carboxamide] were 7.1 µM and 8.4 µM.
For `Cc1nsc(Nc2cnc(C(F)(F)F)cn2)c1C(=O)Nc1cccc(NC(=O)OC(C)(C)C)c1` [Example 284, 3-tert-butyl (3-{[(3-methyl-5-{[5-(trifluoromethyl)pyrazin-2-yl]amino}-1,2-thiazol-4-yl)carbonyl]amino}phenyl)carbamate], in that order: 0.12 µM and 0.54 µM.
For `Cc1nsc(Nc2cnc3ccccc3n2)c1C(=O)Nc1cccc(NS(=O)(=O)C2CN(CC(F)(F)F)C2)c1` [Example 285, 3-methyl-5-(quinoxalin-2-ylamino)-N-[3-({[1-(2,2,2-trifluoroethyl)azetidin-3-yl]sulfonyl}amino)phenyl]-1,2-thiazole-4-carboxamide], in that order: 6.1 µM and above 10 µM.
As for `Cc1nsc(Nc2cnc3ccccc3n2)c1C(=O)Nc1cccc(NS(=O)(=O)C2CN(CC(F)F)C2)c1` [Example 286, N-[3-({[1-(2,2-difluoroethyl)azetidin-3-yl]sulfonyl}amino)phenyl]-3-methyl-5-(quinoxalin-2-ylamino)-1,2-thiazole-4-carboxamide], the IC50 came out at 6.5 µM in assay [1] and 10 µM in the assay with HeLa.
On to `Cc1nsc(Nc2cnc3ccccc3n2)c1C(=O)Nc1cccc(NS(=O)(=O)C2CN(CCF)C2)c1` [Example 287, N-[3-({[1-(2-fluoroethyl)azetidin-3-yl]sulfonyl}amino)phenyl]-3-methyl-5-(quinoxalin-2-ylamino)-1,2-thiazole-4-carboxamide], for which the IC50 in assay [1] amounted to 8.2 µM; in the assay with HeLa, 9.9 µM.
For `Cc1nsc(Nc2cnc3ccccc3n2)c1C(=O)Nc1cccc(NS(=O)(=O)C2CN(CCC(F)(F)F)C2)c1` [Example 288, 3-methyl-5-(quinoxalin-2-ylamino)-N-[3-({[1-(3,3,3-trifluoropropyl)azetidin-3-yl]sulfonyl}amino)phenyl]-1,2-thiazole-4-carboxamide], in that order: 6.1 µM and 9.9 µM.
For `Cc1nsc(Nc2cnc3ccccc3n2)c1C(=O)Nc1cccc(NS(=O)(=O)C2CCN(CC(F)(F)F)C2)c1` (stereo not drawn) [Example 289, 3-methyl-5-(quinoxalin-2-ylamino)-N-[3-({[1-(2,2,2-trifluoroethyl)pyrrolidin-3-yl]sulfonyl}amino)phenyl]-1,2-thiazole-4-carboxamide], in that order: 3.3 µM and 7.8 µM.
Turning to `Cc1nsc(Nc2cnc3ccccc3n2)c1C(=O)Nc1cccc(NS(=O)(=O)C2CCN(C(=O)OC(C)(C)C)C2)c1` (stereo not drawn) [Example 290, tert-butyl 3-{[3-({[3-methyl-5-(quinoxalin-2-ylamino)-1,2-thiazol-4-yl]carbonyl}amino)phenyl]sulfamoyl} pyrrolidine-1-carboxylate], the IC50 in assay [1] came to 3.6 µM; in the assay with HeLa, 8.8 µM.
For `Cc1nsc(Nc2cnc3ccccc3n2)c1C(=O)Nc1cccc(NS(=O)(=O)C2CCCN(C(=O)OCc3ccccc3)C2)c1` (stereo not drawn) [Example 291, benzyl 3-{[3-({[3-methyl-5-(quinoxalin-2-ylamino)-1,2-thiazol-4-yl]carbonyl}amino)phenyl]sulfamoyl} piperidine-1-carboxylate], in that order: 4.8 µM and 8.9 µM.

Values taken from US20170334899A1, “AMINO-SUBSTITUTED ISOTHIAZOLES” (Bayer Pharma Aktiengesellschaft, priority 2014, published 2017).
